Tests used:
[1] = system: patient with heart failure; experiment: Case examples: statin therapy started after biomarker determination in heart failure patients; settings: person
Protocol: PlGF is determined in a plasma sample obtained from the patient. The PlGF value is above 22 pg/mL. The physician prescribes atorvastatin 20 mg/d and closely monitors creatine kinase to exclude myopathy.

patients with CHF = settings: rosuvastatin 10 mg daily, CORONA and GISSI-HF trials; cited from earlier work

| Compound | outcome (death or hospitalization) ([1]; NYHA class III heart failure, prior myocardial infarction, PlGF above 22 pg/mL, atorvastatin 20 mg/d, next 1.5 years) | outcome (death or hospitalization) ([1]; class C heart failure, no CAD, GDF-15 above 3800 pg/mL, atorvastatin 10 mg/d, next 16 months) | effect of statin treatment on primary end point (patients with CHF) |
| --- | --- | --- | --- |
| CC(C)c1c(C(=O)Nc2ccccc2)c(-c2ccccc2)c(-c2ccc(F)cc2)n1CC[C@@H](O)C[C@@H](O)CC(=O)O [atorvastatin, Atorvastatin] | remains stable with a good outcome | remains stable with a good outcome | – |
| CC(C)c1nc(N(C)S(C)(=O)=O)nc(-c2ccc(F)cc2)c1/C=C/[C@@H](O)C[C@@H](O)CC(=O)O [rosuvastatin, Rosuvastatin] | – | – | failed to demonstrate a beneficial effect |
